Experimental data taken from US20060025390A1, “Treatment of hormone allergy and related symptoms and disorders” (priority 2004, published 2006).

Key:
[1] = system: serum IgE anti-estrogen antibodies; test: ELISA binding of IgE estrogen antibodies to different hormones in solid phase; parameters: species or system human; conditions: for IgE binding (optical density): hormone in solid phase, 405 nm; for IgE % reaction: relative to estrogen = 100
Method: (§1) The ELISA inhibition method was used to determine specificity and cross-reactivity between different hormones and to ensure the degree of human IgG, IgM and IgE estrogen or progesterone binding to estrogen or progesterone in solid phase. […] 100 μl of sera from three different patients with high IgG, IgM or IgE antibodies against 17-α-hydroxyprogesterone was added to all wells. After shaking and incubation for 1 hr at room temperature, addition of enzyme labeled anti-human IgG, IgM or IgE, repeat of incubation, washing, and addition of substrate, color development was measured at 405 nm. Results were calculated as percentage of anti-17-α-hydroxyprogesterone binding to 17-α-hydroxyprogesterone and other hormones. Also, anti-estrogen binding to estrogen and other hormones in solid phase by progesterone in liquid phase was performed and calculated in a similar manner.
(§2) Human sera containing 17-α-hydroxyprogesterone IgG-, IgM- and IgE-binding antibodies were reacted against progesterone, estrogen, hydrocortisone and cholesterol. In comparison to 100% binding of anti-17-α-hydroxyprogesterone-binding to 17-α-hydroxyprogesterone, the IgG anti-17-α-hydroxyprogesterone-binding to progesterone, estrogen, hydrocortisone and cholesterol was 69-77%, 25-30%, 39-53%, and less than 10% respectively (Table 4). The % binding of serum IgM and IgE anti-17-α-hydroxyprogesterone to 17-1-hydroxyprogesterone, progesterone, estrogen, hydrocortisone and cholesterol was similar to the binding of IgG. This binding of anti-17-α-hydroxyprogesterone to progesterone was the highest, followed by hydrocortisone, then estrogen, to almost no binding with cholesterol. Similar to this, human sera with IgG, IgM and IgE binding antibodies against estrogen were reacted with progesterone, 17-α-hydroxyprogesterone, hydrocortisone and cholesterol, in the presence of estrogen.

women with acute asthma = test: Symptom relief in women with acute asthma after intradermal progesterone (0 to 10 scale); type: in vivo, human
Method: To test this hypothesis, 142 women with acute asthma were asked to evaluate the severity of their symptoms using an eleven point scale. Ten was assigned to the most severe symptoms, while 0 was assigned to an absence of symptoms. Immediately after assessing their symptoms on this scale, patents were administered 0.5 mg of progesterone by intradermal injection.
Approximately 15 to 30 seconds after the injection was administered, each patient was asked if their symptoms were worse, better, or unchanged. Each patient was also asked to rate their present symptoms on the same 0 to 10 scale.
Of the 142 patients tested 129 (91%) positively responded to the treatment. Using the random effects calculations described in Example 2, this correlates to a less than 0.1% chance that the results are random. Thus the results may be considered highly significant.
Hormone samples may be prepared in any way suitable for the intended administration route. For administration through intradermal injection, samples may be prepared as they were in the studies of Examples 2 and 3. Specifically, the progesterone was formulated from commercially available injectable progesterone. Each ml of the final formulation contained […] of progesterone and 10% benzyl alcohol as a preservative in sesame oil. 0.1 ml was administered per patient intradermally. Estrogen samples were similarly prepared.

[2] = system: serum IgG anti-estrogen antibodies; test: ELISA binding of IgG estrogen antibodies to different hormones in solid phase; parameters: species or system human; conditions: for IgG binding (optical density): hormone in solid phase, 405 nm; for IgG % reaction: relative to estrogen = 100
Method: as §1, §2

[3] = 0.5 mg intradermal, acute asthma
[4] = of 142 women with acute asthma, 0.5 mg intradermal, 15 to 30 seconds after injection

CC(=O)[C@H]1CC[C@H]2[C@@H]3CCC4=CC(=O)CC[C@]4(C)[C@H]3CC[C@]12C [Progesterone, progesterone]
IgE binding (optical density) ([1]; sample 1): 0.21 | IgE % reaction ([1]; sample 1): −26% | IgE binding (optical density) ([1]; sample 2): 0.53 | IgE % reaction ([1]; sample 2): −35% | IgE binding (optical density) ([1]; sample 3): 0.62 | IgE % reaction ([1]; sample 3): −39% | average symptomatic relief, patients who reported some response (women with acute asthma; 0 to 10 scale): 5 points | average symptomatic relief, all patients (women with acute asthma; 0 to 10 scale, responding and not responding patients): 3.4 points | average reduction in symptoms relative to maximum individual patient score (women with acute asthma; [3]): 62% | patients reporting 100% relief of asthma symptoms (%) (women with acute asthma; [3]): 28% | patients reporting 100% relief of asthma symptoms (number) (women with acute asthma; [3]): 40 | patients who positively responded to the treatment (%) (women with acute asthma; [4]): 91% | patients who positively responded to the treatment (number) (women with acute asthma; [4]): 129 | IgG binding (optical density) ([2]; sample 1): 0.35 | IgG % reaction ([2]; sample 1): −29% | IgG binding (optical density) ([2]; sample 2): 0.48 | IgG % reaction ([2]; sample 2): −27% | IgG binding (optical density) ([2]; sample 3): 0.32 | IgG % reaction ([2]; sample 3): −35%
